{"source": "patent US20060154930A1", "about": "“Substituted amino heterocycles as vr-1 antagonists for treating pain” (priority 2003, published 2006)", "origin": "cited, not measured here", "target": "VR1 (Rattus norvegicus, UniProt O35433)", "sequence (O35433 whole entry)": "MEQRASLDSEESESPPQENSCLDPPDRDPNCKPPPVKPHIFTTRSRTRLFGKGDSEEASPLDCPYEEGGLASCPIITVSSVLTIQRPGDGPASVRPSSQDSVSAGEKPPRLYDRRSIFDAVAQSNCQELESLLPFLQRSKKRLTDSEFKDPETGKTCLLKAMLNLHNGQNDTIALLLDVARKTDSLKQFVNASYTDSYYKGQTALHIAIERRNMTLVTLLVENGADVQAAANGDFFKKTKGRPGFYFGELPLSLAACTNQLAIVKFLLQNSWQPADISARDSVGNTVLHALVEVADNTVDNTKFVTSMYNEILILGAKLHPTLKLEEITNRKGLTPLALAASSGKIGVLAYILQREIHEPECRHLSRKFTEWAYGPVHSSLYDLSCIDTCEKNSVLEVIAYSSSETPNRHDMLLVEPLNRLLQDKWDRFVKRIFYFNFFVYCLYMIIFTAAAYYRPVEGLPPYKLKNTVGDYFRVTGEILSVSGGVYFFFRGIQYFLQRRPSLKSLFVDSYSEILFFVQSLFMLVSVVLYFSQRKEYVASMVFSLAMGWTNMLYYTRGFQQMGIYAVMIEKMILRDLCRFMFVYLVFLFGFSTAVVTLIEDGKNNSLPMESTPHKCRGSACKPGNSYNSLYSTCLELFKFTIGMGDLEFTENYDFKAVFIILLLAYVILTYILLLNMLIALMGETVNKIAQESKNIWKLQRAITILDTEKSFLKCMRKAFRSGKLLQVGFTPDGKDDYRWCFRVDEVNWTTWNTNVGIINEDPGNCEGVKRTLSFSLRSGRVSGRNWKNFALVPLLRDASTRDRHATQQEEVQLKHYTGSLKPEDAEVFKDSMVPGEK", "details": "Wahl et al., Mol. Pharmacol, 59:9, 2001", "data": [{"smiles": "C=C(C)[C@]12C[C@@H](C)[C@@]34O[C@](Cc5ccccc5)(O[C@@H]1[C@@H]3C=C(COC(=O)Cc1cc(I)c(O)c(OC)c1)C[C@]1(O)C(=O)C(C)=C[C@@H]41)O2", "note": "[Iodo-resiniferatoxin]", "values": [{"measurement": "VR1 antagonist potency (in words)", "value": "nanomolar antagonist"}]}]}
